{"source": "patent US6548553B2", "about": "“Styryl sulfone anticancer agents” (Temple University-of the Commonwealth System of Higher …, priority 1997, dated 2003)", "type_in_all_cases": "cell-based", "key": {"LnCaP and MCF-7 cells": {"tested_on": "LnCaP and MCF-7 cells", "assay": "Trypan blue exclusion viability assay, Tables 2-4", "conditions": "5.0 μM compound, 48 hours, read-out: % viable LnCaP and MCF-7 cells", "protocol": "(§1) The effect of the styryl sulfones on the growth of normal and tumor cells of breast and prostate was examine utilizing four cell lines, NIH3T3, MCF-7, BT-20 and LnCap. NIH/3T3 cells represent normal fibroblasts while LnCap is an androgen-dependent prostate tumor cell line. MCF-7 is an estrogen-responsive breast tumor cell line, while BT-20 is an estrogen-unresponsive breast tumor cell line. MCF-7 and BT-20 were grown in Dulbecco's modified Eagle's medium (DMEM) containing 10% fetal bovine serum supplemented with penicillin and streptomycin. LnCaP were cultured in RPMI with 10% fetal bovine serum containing penicillin and streptomycin. NIH3T3 cells were grown in DMEM containing 10% calf serum supplemented with penicillin and streptomycin. All cell cultures were maintained at 37° C. in a humidified atmosphere of 5% CO2.\nCells were treated with test compound at 2.5 μM or 5.0 μM concentration and cell viability was determined after 48 hours by the Trypan blue exclusion method. The compounds identified in Tables 2, 3 and 4 inhibited cell growth and induced cell death, to varying degrees. The tables list the percent viable LnCap and MCF-7 cells treated with 5.0 μM compound."}, "ERK-2": {"tested_on": "ERK-2", "assay": "Western blot analysis of treated cell lysates with ERK-2 antibody", "conditions": "2.5 and 5.0 μM, 48 hours; NIH3T3, LnCaP or MCF-7", "protocol": "Cell lysates of FRI-20-treated cells were prepared for Western Blot analysis as follows. NIH3T3, LnCaP or MCF-7 cells were seeded at a density of 2×10^5 cells/per well in a six-well plate and allowed to grow for 24 hours. Fresh medium was added to each well 2 hours before treatment with FRI-20. The compound was dissolved in DMSO to make a 2 mM stock solution and added to the medium (2 ml) to obtain a final concentration of 2.5 and 5.0 μM. After 48 hours at 37° C., the cells were washed twice with 10 ml of ice cold phosphate-buffered saline and harvested in 400 μl of lysis buffer containing 25 mM HEPES (pH 7.6), 0.1% Triton X-100, 300 mM NaCl, 1.5 mM MgCl2, 20 mM β-glycerophosphate, 100 μM Na3VO4, 0.2 mM EDTA, 0.5 mM dithiothreitol, 2 μg/ml aprotinin, 2 μg/ml leupeptin, 100 μM […] and 1 mM benzamidine. The cell lysates were kept on ice for 30 minutes and centrifuged for 10 minutes in a microcentrifuge (16000 X g). The cell lysates were separated from the debris and normalized for protein content.\nWestern Blot analysis was carried out on the drug- and mock-treated cell lysates with ERK-2 antibody. Equal amounts of total protein (100 μg) were loaded in each lane of a SDS-PAGE gel (10-12%) and transferred to Immobilon-P (Millipore, USA). […] The antibody was detected using the ECL Western blotting analysis kit (Amersham) following the manufacturer's instructions."}, "LnCaP cells": {"tested_on": "LnCaP cells", "assay": "Cell cycle analysis by propidium iodide flow cytometry (FACS)", "conditions": "2.0 μM; harvested 6, 12, 24 and 48 hours", "protocol": "The androgen-dependent prostate tumor cell line LnCaP was grown as in Ex. 22, A, and treated with 2.0 μM FRI-20 dissolved in DMSO or with equivalent amounts ([…]) of DMSO alone. Cells were harvested 6, 12, 24, and 48 hours following treatment and stained with propidium iodide and subjected to flow cytometry (FACS) for analysis of DNA content."}, "[1]": {"tested_on": "361 breast tumor cell line", "assay": "Trypan blue exclusion viability assay, breast tumor cell line", "conditions": "2.5 and 5.0 μM, 48 hours", "protocol": "(§2) The effect of FR-20 on the growth of normal and tumor cells of breast and prostate was examine utilizing nine cell lines: NIH/3T3 and HFL (normal fibroblast cell lines); MCF-7 and 361 ([…] breast tumor cell lines); BT-20, 435 and SKBR-3 ([…] breast tumor cell lines); LnCaP (androgen sensitive prostate tumor cell line); PC-3 and DU-145 (androgen insensitive prostate tumor cell line).\n(§3) The cells were grown as in Example 22, A. FR-20 was dissolved in DMSO and added to the cells at 2.5 μM and 5.0 μM concentration. To control cells, DMSO was added equivalent to the volume of solvent (DMSO) present at the highest concentration of the compound. The activity of the compound was evaluated after 48 hours by Trypan blue exclusion. […] Nearly 50% of SKBR-3 and BT-20 cells were dead at 2.5 μM and 75% at 5.0 μM concentration of the compound. […] FRI-20 had profound effect on the viability of androgen-dependent LnCaP prostate tumor cell line when compared to androgen-independent DU-145 and PC-3 prostate cell lines. At […] FRI-20, 80% of LnCaP, 40% of PC-3 and 20% of DU-145 cells were killed. At […] FRI-20, 72% of LnCaP, 47% of PC-3 and 40% of DU-145 were killed (FIG. 3B)."}, "[2]": {"tested_on": "MCF-7, HTB126, T470 and 435 cells", "assay": "Trypan blue exclusion viability assay, breast tumor cell lines", "conditions": "48 hours", "protocol": "as §2, §3"}, "[3]": {"assay": "Trypan blue exclusion viability assay, normal fibroblast cell lines", "conditions": "mouse (NIH3T3), human (HFL), NIH3T3 and HFL cells (normal fibroblast cell lines), 2.5 and 5.0 μM, read-out: percent viability", "protocol": "as §2, §3"}, "[4]": {"tested_on": "LnCaP, BT-20 and MCF-7 cells", "assay": "Trypan blue exclusion viability/proliferation assay (dose and time course)", "protocol": "as §1\nThe compounds identified in Tables 2, 3 and 4 inhibited cell growth and induced cell death, to varying degrees. The tables list the percent viable LnCap and MCF-7 cells treated with 5.0 μM compound.\nNIH3T3, MCF-7, BT-20 and LnCaP cells were treated with FRI-20 dissolved in DMSO to concentrations of 250 nM, 500 nM, 1 μM, 2.5 μM and 5 μM and examined for their proliferation and viability after 48 hours (FIG. 2A). The percentage of living cells was determined by Trypan blue exclusion. The control cells were treated with DMSO to determine the effect of solvent on cells. […] Under these conditions, only 2-3% of NIH3T3 cells were non-viable at both the concentrations. […] After 48 hours incubation, 60-75% of the LnCaP, BT-20 and MCF-7 cells were dead at […] FRI-20 concentration, whereas more than 90% of NIH3T3 cells were viable (FIG. 2A).\nNIH/3T3, MCF-7, BT-20 and LnCap were treated with FRI-20 at 2.5 μM and the number of viable cells was determined at 12, 24, 48 and 72 hours by Trypan blue exclusion."}}, "data": [{"smiles": "O=S(=O)(/C=C/c1ccc(F)cc1)Cc1ccc(Cl)cc1", "note": "[Example 11, E-4-fluorostyryl 4-chlorobenzyl Sulfone]", "values": [{"measurement": "viability at 5 µM", "setting": "LnCaP and MCF-7 cells", "result": 6, "unit": "%"}, {"measurement": "amount of ERK-2 protein in drug- and mock-treated lysates", "setting": "ERK-2", "result": "the same amount of protein in both lysates"}, {"measurement": "effect on cell cycle (DNA content)", "setting": "LnCaP cells", "result": "accumulation of cells in the G2/M phase of the cell cycle"}, {"measurement": "viable cells", "setting": "[1]", "result": "50-75%"}, {"measurement": "viability at 2.5 µM", "setting": "[2]; 2.5 µM", "result": "< 25", "unit": "%"}, {"measurement": "viability at 5 µM", "setting": "[2]; 5.0 µM", "result": "< 10", "unit": "%"}, {"measurement": "viability at 48 h", "setting": "[3]", "result": "85 to 90", "unit": "%"}, {"measurement": "cell death", "setting": "[4]; 250 nM, 48 hours", "result": "about 10%"}, {"measurement": "inhibition at 0.25 µM", "setting": "[4]; 250 nM, 48 hours, read-out: inhibition in cell division compared to untreated cells", "result": "15 to 20", "unit": "%"}, {"measurement": "cell death", "setting": "[4]; 500 nM, 48 hours", "result": "25-30%"}, {"measurement": "inhibition at 0.5 µM", "setting": "[4]; 500 nM, 48 hours, read-out: inhibition in cell proliferation", "result": "30 to 50", "unit": "%"}, {"measurement": "cell growth inhibition with loss of cell viability", "setting": "[4]; 1 μM, 48 hours", "result": "greatly inhibited"}, {"measurement": "dead cells", "setting": "[4]; 2.5 µM, 48 hours incubation", "result": "60-75%"}, {"measurement": "dead cells", "setting": "[4]; 2.5 μM, 72 hours of treatment", "result": "more than 95%"}, {"measurement": "cell death", "setting": "[4]; 5 μM, 48 hours", "result": "~90", "unit": "%"}]}]}
